The source of these data is patent publication US20120269815A1, “NEUROTROPHINS AND USES THEREOF” (Regents of the University of Minnesota, priority 2008, published 2012).

The nature of experiment [1]: Fear-potentiated startle after ICV TUF1 peptide infusion. Format: in vivo, rat. As to conditions: adult male rats. As for the experimental part:
(§1) a) Intra-cerebroventricular (ICV) Cannulation Male Sprague-Dawley rats weighing 250-400 grams were anesthetized with ketamine (100 mg/kg) and xylazine (7 mg/kg) and placed in a stereotaxic device (David Kopf Instruments Corp., Tunjunga, Calif.) using atraumatic ear bars. An incision of the skin overlying the skull was made and anchor screws were inserted into the skull. Burr holes were drilled to allow the guide cannula to pass into the brain. The guide cannula (22-gauge, C313G; Plastics One, Roanoke, Va.) was placed at 0 mm posterior, 1.2 mm lateral and 3.5 mm ventral to bregma. The cannula was affixed using epoxy glue (Loctite 444; McMaster-Carr, Chicago, Ill.) followed by dental acrylic (Hygienic perm reline & repair resin, Type II, Class I; Henry Schein, Inc., Melville, N.Y.). The cannula was sealed and kept open by insertion of a ‘dummy’ cannula. […]
(§2) For fear potentiated startle, shock sensitization, and prepulse inhibition testing, animals were trained and tested in four identical 7.5 cm×9 cm×17 cm stabilimeter devices. […] Shock intensity was measured with a 1-kΩ resistor across a differential channel of an oscilloscope in series with a 100-kΩ resistor connected between two floor bars in each cage. Current was defined as the RMS voltage across the resistor and calculated in mA as 0.707×0.5 ×peak-to-peak voltage. […]

Experiment [2] is described as follows: Prepulse inhibition of startle after ICV TUF1 peptide infusion. The class given is in vivo, rat. As to conditions: adult male rats, 1.0 μg or 10 μg ICV. The protocol:
as §1, §2

No end group written: not given here.

Consider AYKSYVRALPLL [TUF1[43-54]], for which the shock reactivity entry in experiment [1] (1.0 μg or 10 μg ICV) is “No effect”. Moreover, the fear potentiated startle entry in experiment [1] (1.0 μg or 10 μg via lateral ventricle cannulae, vs control subjects) is “reduced fear potentiated startle”. For the same sequence, the pre-pulse inhibition entry in experiment [2] was “No effect”.
